# Laboratory results: patent publication US20140179681A1, “METHODS AND COMPOSITIONS OF TARGETED DRUG DEVELOPMENT” (priority 2010, published 2014)
# Structures can show the parent of a compound that is named as a salt.
# Target: T1, EGFR (Homo sapiens, UniProt P00533)
# T1 construct: host or cells: A431
# Assay: EGFR in-cell Western (ICW) screening protocol (EGFR inhibition assay)
# Assay type: cell-based
# Parameters: ICW 1 / ICW 2 / ICW Avg: unit not given here
# Details: for ICW Screen: Table 11, % Inhibition of EGF dependent EGFR phosphorylation in A431 cells, compound 125 μM in assay; for ICW Avg / ICW 1 / ICW 2: ICW assay; for ICW Avg: average of runs 1 and 2; for ICW 1: run 1; for ICW 2: run 2
# Description: The following example describes general EGFR in-cell Western (ICW) screening protocol. Methods are according to Chen et al. (2005) Analytical Biochemistry 338, 136-142 (incorporated herein by reference), except as otherwise noted.
# Cell Plates: A431 cells (ATCC # CRL-1555) were grown in Dulbecco's Modified Eagle Medium (DMEM; ATCC #30-2002) supplemented with 10% fetal bovine serum, 105 units/ml pen/strep (Invitrogen #15140155) and 2.1 mM L-glutamine (ATCC #30-2214). Cells were seeded into 96 well tissue culture plates (BD Falcon #353948) at a density of 30,000 cells per well and incubated at 37° C. with 5% CO2 overnight. Two cell plates were prepared for each compound plate.
# Serum Starvation: The cells were serum starved prior to compound addition. The media was removed by aspiration and the cells washed with PBS (200 μl/well; Invitrogen #20012-027). The PBS was removed by aspiration and replaced with 200 μl of DMEM (ATCC #30-2002) supplemented with 105 units/ml pen/strep (Invitrogen #15140155) and 2.1 mM 1-glutamine (ATCC #30-2214). The cell plates were incubated at 37° C./5% CO2 for 2 hours.
# Compound Plate Preparation: The test compounds were solvated in 100% DMSO (Sigma #472301-2L) at a concentration of 25 mM. Compounds found not to be completely soluble in 100% DMSO at 25 mM were diluted to 10 mM with 100% DMSO and TFA (Fluka #91699) added to a final concentration of 0.2%. 40 μl of test compound was added to the appropriate well of a 96 well plate (Falcon #351190). As controls, 6 μM EGFR kinase inhibitor PD168393 (EMD/Calbiochem #513033) in 100% DMSO and DMSO alone were added to various wells. Prepared compound plates were stored at RT prior to use and at 4° C. long term.
# Compound Dilution Plate Preparation: 250 μl of DMEM supplemented with 1 mg/ml BSA (Sigma A3059-10G) was added to the appropriate wells of a 96 well plate to prepare the compound dilution plates. Using a multichannel pipettor, 1.25 μl of compound from the compound plate was transferred into the compound dilution plate.
# Compound Addition: The starve media was removed from the cell plates by aspiration. Using a multichannel pipettor, the compound dilution plates were mixed by pipetting up and down three times. 50 μl of mixed, diluted compound was added to each of two rows/columns on each of two cell plates. The cell plates with compound were incubated at 37° C./5% CO2 for 4 hours.
# EGF Addition: 20 ng/ml EGF (Upstate #01-107) was prepared in DMEM supplemented with 1 mg/ml BSA. 50 μl of 20 or 0 ng/ml EGF was added to the appropriate wells without the removal of compound. The compound and EGF were mixed by pipetting up and down three times. The plates were incubated at 37° C./5% CO2 for 10 min. In some screening assays the final concentration of EGF used for simulation was 6.6, or 12.5 ng/ml rather than 10 ng/ml.
# Fixation and Triton Washing: The EGF+compound was removed by aspiration and 150 μl of freshly prepared Fixation Solution (1×PBS, Sigma P3813-10PK, and 4% Formaldehyde, Pierce #28908) was immediately added. The plates were incubated at RT for 20 min without shaking. The Fixation Solution was removed by aspiration and the plates washed four times with 200 μl each of Triton Wash Solution (1×PBS, Sigma P3813-10PK, and 0.1% Triton X-100, T8787-50ML) for 5 min with gentle shaking.
# Blocking and Probing: Following the last Triton Wash, the plates were blocked for 1.5 h at RT with shaking using 150 μl of Odyssey Blocking Buffer (LI-COR #927-40000). The block was removed by aspiration and 50 μl of diluted primary Ab mix was added. The plates were incubated at 4° C. overnight with gentle shaking. The plates were washed five times with 200 μl of PBST (1×PBS, Sigma P3813-10PK, and 0.1% Tween-20, Sigma P9416-50ML) for 5 min each with shaking 50 μl of diluted secondary Ab mix was added and the plates incubated at RT for 1 h with shaking. The plates were washed 5× with 200 μl of PBST for 5 min each with shaking. […]
# T1 sequence (P00533 25-1210): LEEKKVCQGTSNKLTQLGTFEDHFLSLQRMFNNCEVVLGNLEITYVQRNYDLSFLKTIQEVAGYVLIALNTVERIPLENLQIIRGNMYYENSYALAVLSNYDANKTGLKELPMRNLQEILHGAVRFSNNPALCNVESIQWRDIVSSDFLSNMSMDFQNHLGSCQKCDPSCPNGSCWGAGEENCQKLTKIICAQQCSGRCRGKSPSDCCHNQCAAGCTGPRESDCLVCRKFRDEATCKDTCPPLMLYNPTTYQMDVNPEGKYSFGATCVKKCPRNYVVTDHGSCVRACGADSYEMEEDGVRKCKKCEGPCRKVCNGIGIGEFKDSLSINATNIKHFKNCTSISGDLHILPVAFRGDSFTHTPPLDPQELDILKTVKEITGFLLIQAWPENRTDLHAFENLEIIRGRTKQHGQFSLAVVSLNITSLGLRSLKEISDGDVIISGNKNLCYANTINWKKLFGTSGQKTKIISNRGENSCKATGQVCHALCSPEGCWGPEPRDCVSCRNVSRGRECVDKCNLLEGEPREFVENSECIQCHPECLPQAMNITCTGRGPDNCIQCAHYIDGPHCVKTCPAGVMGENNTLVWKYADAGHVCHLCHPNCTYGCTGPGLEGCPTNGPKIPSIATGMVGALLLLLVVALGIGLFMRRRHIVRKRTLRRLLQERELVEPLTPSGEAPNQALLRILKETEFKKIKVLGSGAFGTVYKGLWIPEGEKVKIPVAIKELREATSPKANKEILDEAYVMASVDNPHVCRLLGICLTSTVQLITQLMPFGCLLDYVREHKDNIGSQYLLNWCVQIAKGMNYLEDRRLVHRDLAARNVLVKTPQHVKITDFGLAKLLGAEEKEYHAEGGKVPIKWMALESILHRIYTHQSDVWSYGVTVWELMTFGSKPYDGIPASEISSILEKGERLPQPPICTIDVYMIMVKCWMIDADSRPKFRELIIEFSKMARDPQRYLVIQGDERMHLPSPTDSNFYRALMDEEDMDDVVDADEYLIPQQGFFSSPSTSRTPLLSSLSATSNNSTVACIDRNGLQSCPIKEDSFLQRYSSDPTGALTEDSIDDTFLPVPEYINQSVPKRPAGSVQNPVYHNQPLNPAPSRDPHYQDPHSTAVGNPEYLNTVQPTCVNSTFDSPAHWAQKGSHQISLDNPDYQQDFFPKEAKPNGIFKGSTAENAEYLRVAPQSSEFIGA
SMILES,ICW Screen (ICW Inhibition),further results
C=CCN(CC=C)S(=O)(=O)c1ccc(NC(=S)NC(=O)/C=C/c2ccc(F)cc2)cc1 [AD4-12157],26.73,–
COc1cc(NS(=O)(=O)c2ccc(NC(=S)NC(=O)CCc3ccc(F)cc3)cc2)ncn1 [AD4-11384],28.127,–
COc1cc(OC)nc(NS(=O)(=O)c2ccc(NC(=S)NC(=O)C3CCCC3)cc2)n1 [AD4-11536],27.431,–
CN1CCN(S(=O)(=O)c2ccc(NC(=S)NC(=O)c3ccccc3)cc2)CC1 [AD4-11420],30.052,–
Cc1cc(C)nc(NS(=O)(=O)c2ccc(NC(=S)NC(=O)C3CCCC3)cc2)n1 [AD4-12163],26.671,–
Cc1cc2oc(=O)cc(CN3CCN(CCO)CC3)c2cc1C [AD4-10176],–,ICW Screen: 42.066
CCCc1c[nH]c(Nc2nc(C)c3ccccc3n2)nc1=O [compound 12662],–,ICW Avg: 25.21; ICW 1: 21.64; ICW 2: 28.79
Cc1ccc(NS(=O)(=O)c2ccc(NC(=S)NC(=O)CCc3ccccc3)cc2)cc1C [AD4-12103],26.212,–
CC(C)(C)NS(=O)(=O)c1ccc(NC(=S)NC(=O)C2CCC2)cc1 [AD4-11976],26.918,–
O=C(NC(=S)Nc1ccc(S(=O)(=O)N2CCc3ccccc32)cc1)C1CCCC1 [AD4-12291],25.191,–
COc1cc(NS(=O)(=O)c2ccc(NC(=S)NC(=O)CCc3ccccc3)cc2)nc(OC)n1 [AD4-11405],26.497,–
COc1ccc(CC(=O)NC(=S)Nc2ccc(S(=O)(=O)NC(C)(C)C)cc2)cc1 [AD4-12133],25.058,–
COc1ccc(CC(=O)NC(=S)Nc2ccc(S(=O)(=O)N3CCOCC3)cc2)cc1 [AD4-11406],26.851,–
Cc1cc(C)c2nc(Nc3nc4c(c(=O)[nH]3)CCCC4)nc(C)c2c1 [11483 + TFA],–,ICW Avg: 29.27; ICW 1: 29.55; ICW 2: 28.99
COc1ccc(NS(=O)(=O)c2ccc(NC(=S)NC(=O)C3CCCC3)cc2)cc1 [AD4-11523],26.098,–
CC(=O)NS(=O)(=O)c1ccc(NC(=S)NC(=O)Cc2cccc3ccccc23)cc1 [AD4-12071],27.713,–
C=CCN(CC=C)S(=O)(=O)c1ccc(NC(=S)NC(=O)/C=C/c2ccccc2)cc1 [AD4-12092],25.019,–
CCc1nnc(NS(=O)(=O)c2ccc(NC(=S)NC(=O)/C=C/c3ccc(C)cc3)cc2)s1 [AD4-11879],25.689,–
O=C(CCc1ccccc1)NC(=S)Nc1ccc(S(=O)(=O)N2CCOCC2)cc1 [AD4-12147],26.967,–
Cc1cc(NS(=O)(=O)c2ccc(NC(=S)NC(=O)/C=C/c3cccs3)cc2)no1 [AD4-11863],27.36,–

SMILES,ICW Screen (ICW Inhibition),further results
COc1ccc(NS(=O)(=O)c2ccc(NC(=S)NC(=O)/C=C/c3ccccc3)cc2)nn1 [AD4-11888],26.355,–
CCN(c1ccccc1)S(=O)(=O)c1ccc(NC(=S)NC(=O)C2CCCCC2)cc1 [AD4-11407],27.585,–
CCc1nnc(NS(=O)(=O)c2ccc(NC(=S)NC(=O)/C=C/c3ccccc3)cc2)s1 [AD4-11861],30.242,–
CN(Cc1ccccc1)S(=O)(=O)c1ccc(NC(=S)NC(=O)C2CCCC2)cc1 [AD4-12039],29.977,–
CN1CCN(S(=O)(=O)c2ccc(NC(=S)NC(=O)C3CCCC3)cc2)CC1 [AD4-11973],27.176,–
CC(C)C(=O)NC(=S)Nc1ccc(S(=O)(=O)N(C)Cc2ccccc2)cc1 [AD4-12051],28.852,–
CCOc1ccc(NS(=O)(=O)c2ccc(NC(=S)NC(=O)CC(C)C)cc2)cc1 [AD4-12014],25.611,–
COc1ccc(CC(=O)NC(=S)Nc2ccc(S(=O)(=O)Nc3nc(C)cc(C)n3)cc2)cc1 [AD4-11395],26.301,–
CCc1nnc(NS(=O)(=O)c2ccc(NC(=S)NC(=O)C34CC5CC(CC(C5)C3)C4)cc2)s1 [AD4-11385],28.892,–
CCc1ccc2oc(=O)cc(CN3CCN(CCO)CC3)c2c1 [AD4-10178],–,ICW Screen: 34.907
CN(Cc1ccccc1)S(=O)(=O)c1ccc(NC(=S)NC(=O)C2CCCCC2)cc1 [AD4-11410],28.101,–
Cc1cc(-c2ccccc2)nc(Nc2nc(C)c3cc(C)c(C)cc3n2)n1 [compound 11309],–,ICW Avg: 37.00; ICW 1: 33.31; ICW 2: 40.70
CN1CCN(S(=O)(=O)c2ccc(NC(=S)NC(=O)CCc3ccccc3)cc2)CC1 [AD4-11424],28.422,–
COc1ccc(NS(=O)(=O)c2ccc(NC(=S)NC(=O)C(C)(C)C)cc2)cc1 [AD4-11994],27.18,–
CC(=O)NC(=S)Nc1ccc(S(=O)(=O)N2CCc3ccccc32)cc1 [AD4-10103],29.295,–
Cc1ccc(OCC(=O)NC(=S)Nc2ccc(S(=O)(=O)N3CCOCC3)cc2)c(Br)c1 [AD4-11401],25.557,–
CN(C1CCCCC1)S(=O)(=O)c1ccc(NC(=S)NC(=O)C2CC2)cc1 [AD4-11986],25.368,–
Cc1cc(C)c2nc(Nc3nc(C)cc(=O)[nH]3)nc(C)c2c1 [11607 + TFA],–,ICW Avg: 42.71; ICW 1: 43.69; ICW 2: 41.73
COc1ccc(CC(=O)NC(=S)Nc2ccc(S(=O)(=O)NCCc3ccccc3)cc2)cc1 [AD4-10622],25.347,–
